Like-named read-outs stand apart in the source and are kept apart here.
Key:
[1] = system: isolated rat liver mitochondria; test: Mitochondrial oxygen consumption (glutamate/malate or succinate driven, state 4 and state 3); format: biochemical; conditions: DMSO treated samples set as 1; as to State 3 respiration driven by succinate at 10XCmax: key: 0 indicates that the drug had no effects (negative); as to State 3 respiration driven by succinate at 1XCmax: key: 0 indicates that the drug had no effects (negative)
Outline: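 Rat liver mitochondria (1 mg/ml protein) exposed 5 min to kinase inhibitors in 0.1% DMSO, then O2 consumption measured by Clark-type electrode with glutamate/malate or succinate (state 4), ADP added after 3 min (state 3). Rates normalized to 0.1% DMSO controls set to 1.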

[2] = target: T1, RCC II (Rattus norvegicus, UniProt P21913+Q641Z9+Q6PCT8+Q920L2); test: RCC II activity in submitochondrial particles; format: biochemical; design: key: activity relative to DMSO-treated controls (control set as 1 = 100%); conditions: DMSO treated samples set as 1
T1 construct: Submitochondrial particles were prepared by subjecting the intact mitochondria to three successive freeze–thaw cycles; from tissue; host or cells: rat liver mitochondria, used as submitochondrial particles
Outline: (§1)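 First, submitochondrial particles (1 mg/ml) are incubated with inhibitor for 15 min. Next, complex activities are followed spectrophotometrically, with RCC I taken as the difference between buffers lacking and containing rotenone. Finally, activities are expressed relative to DMSO controls set at 1.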

[3] = system: RCC III; test: RCC III activity in submitochondrial particles; format: biochemical, rat; design: key to RCC III at 100XCmax: activity relative to DMSO-treated controls (control set as 1 = 100%); conditions: 100XCmax
Outline: as §1

[4] = system: RCC IV; test: RCC IV activity in submitochondrial particles; format: biochemical, rat; design: key to RCC IV at 50XCmax / RCC IV at 100XCmax: activity relative to DMSO-treated controls (control set as 1 = 100%); conditions: 50XCmax; DMSO treated samples set as 1; in %
Outline: as §1

[5] = system: RCC V; test: RCC V activity in submitochondrial particles; format: biochemical, rat; conditions: DMSO treated samples set as 1; as to RCC V at 5XCmax: key: 0 indicates that the drug had no effects (negative)
Outline: as §1

[6] = system: isolated rat liver mitochondria; test: Mitochondrial inner membrane potential (MMP), Rhodamine 123; format: biochemical; conditions: difference in signal between KI and DMSO treated samples at the end of experiments
Excerpt: Fig. 3 KI effects on mitochondrial inner membrane potential (MMP). […] In a, c, data are means and standard derivations from three separate experiments. *p < 0.05 as compared to DMSO-treated samples at the end of experiments. In b, data are means of two independent experiments

[7] = system: isolated rat liver mitochondria; conditions: positive control alamethicin treated samples
[8] = cited from earlier work
[9] = system: isolated rat liver mitochondria; test: Mitochondrial ROS production (CM-H2DCFDA); conditions: DMSO treated samples set as 1

T1 sequence (Q920L2 35-656): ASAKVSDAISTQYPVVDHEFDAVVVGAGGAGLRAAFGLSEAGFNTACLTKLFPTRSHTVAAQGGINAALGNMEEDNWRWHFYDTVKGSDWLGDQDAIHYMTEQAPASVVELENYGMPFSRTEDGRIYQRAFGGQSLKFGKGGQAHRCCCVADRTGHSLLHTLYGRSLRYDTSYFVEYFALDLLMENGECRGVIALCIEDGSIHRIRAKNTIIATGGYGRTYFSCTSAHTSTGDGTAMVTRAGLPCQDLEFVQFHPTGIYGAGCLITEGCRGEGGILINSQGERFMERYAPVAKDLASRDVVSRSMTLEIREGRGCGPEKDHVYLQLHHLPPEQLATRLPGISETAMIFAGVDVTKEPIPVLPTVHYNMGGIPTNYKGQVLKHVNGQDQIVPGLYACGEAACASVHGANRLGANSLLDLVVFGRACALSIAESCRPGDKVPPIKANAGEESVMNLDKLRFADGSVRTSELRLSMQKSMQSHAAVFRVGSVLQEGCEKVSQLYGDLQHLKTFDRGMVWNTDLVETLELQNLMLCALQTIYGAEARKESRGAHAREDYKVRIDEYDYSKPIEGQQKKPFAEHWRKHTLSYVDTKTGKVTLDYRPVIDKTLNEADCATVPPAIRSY
T1 sequence (P21913 31-282): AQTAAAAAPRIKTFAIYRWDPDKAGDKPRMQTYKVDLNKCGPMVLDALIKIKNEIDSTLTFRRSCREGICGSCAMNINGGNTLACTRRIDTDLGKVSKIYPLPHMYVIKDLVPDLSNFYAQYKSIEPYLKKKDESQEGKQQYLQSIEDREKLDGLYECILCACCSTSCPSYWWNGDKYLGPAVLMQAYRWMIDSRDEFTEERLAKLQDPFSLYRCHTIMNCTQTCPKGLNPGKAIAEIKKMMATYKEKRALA
T1 sequence (Q641Z9 1-169): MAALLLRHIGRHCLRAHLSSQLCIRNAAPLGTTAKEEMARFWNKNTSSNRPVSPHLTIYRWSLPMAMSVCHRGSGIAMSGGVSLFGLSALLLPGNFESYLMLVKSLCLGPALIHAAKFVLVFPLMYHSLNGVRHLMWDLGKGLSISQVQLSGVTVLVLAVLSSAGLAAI
T1 sequence (Q6PCT8 57-159): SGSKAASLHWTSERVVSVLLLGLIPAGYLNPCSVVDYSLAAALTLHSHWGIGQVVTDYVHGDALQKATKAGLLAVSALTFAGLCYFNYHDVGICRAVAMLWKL

For `COC(=O)c1ccc2c(c1)NC(=O)/C2=C(\Nc1ccc(N(C)C(=O)CN2CCN(C)CC2)cc1)c1ccccc1` [Nintedanib], the “State 3 respiration driven by glutamate/malate at 1XCmax” value ([1]; 1XCmax) was 0, the “State 3 respiration driven by succinate at 1XCmax” value ([1]; 1XCmax) was 0 and the “State 4 respiration driven by glutamate/malate at 1XCmax” value ([1]; 1XCmax) was 0. For the same molecule, the “State 4 respiration driven by succinate at 1XCmax” value ([1]; 1XCmax) was 0, the “State 3 respiration driven by glutamate/malate at 2.5XCmax” value ([1]; 2.5XCmax) was 0 and the “State 3 respiration driven by succinate at 2.5XCmax” value ([1]; 2.5XCmax) was 0. The “State 4 respiration driven by glutamate/malate at 2.5XCmax” value ([1]; 2.5XCmax) was 0, the “State 4 respiration driven by succinate at 2.5XCmax” value ([1]; 2.5XCmax) was 0 and the “State 3 respiration driven by glutamate/malate at 5XCmax” value ([1]; 5XCmax) was 0. For the same molecule, the “State 3 respiration driven by succinate at 5XCmax” value ([1]; 5XCmax) was 0, the “State 4 respiration driven by glutamate/malate at 5XCmax” value ([1]; 5XCmax) was 0 and the “State 4 respiration driven by succinate at 5XCmax” value ([1]; 5XCmax) was 0. For the same molecule, the “State 3 respiration driven by glutamate/malate at 10XCmax” value ([1]; 10XCmax) was 0, the “State 3 respiration driven by succinate at 10XCmax” value ([1]; 10XCmax) was 0 and the “State 4 respiration driven by glutamate/malate at 10XCmax” value ([1]; 10XCmax) was 0. The “State 4 respiration driven by succinate at 10XCmax” value ([1]; 10XCmax) was 0, the “State 3 respiration driven by glutamate/malate at 20XCmax” value ([1]; 20XCmax) was 0 and the “State 3 respiration driven by succinate at 20XCmax” value ([1]; 20XCmax) was 0. The “State 4 respiration driven by glutamate/malate at 20XCmax” value ([1]; 20XCmax) was 0, the “State 4 respiration driven by succinate at 20XCmax” value ([1]; 20XCmax) was 0 and the “State 3 respiration driven by glutamate/malate at 30XCmax” value ([1]; 30XCmax) was 0. For the same molecule, the “State 3 respiration driven by succinate at 30XCmax” value ([1]; 30XCmax) was 0, the “State 4 respiration driven by glutamate/malate at 30XCmax” value ([1]; 30XCmax) was 0 and the “State 4 respiration driven by succinate at 30XCmax” value ([1]; 30XCmax) was 0. The “State 3 respiration driven by glutamate/malate at 50XCmax” value ([1]; 50XCmax) was 0, the “State 3 respiration driven by succinate at 50XCmax” value ([1]; 50XCmax) was 0 and the “State 4 respiration driven by glutamate/malate at 50XCmax” value ([1]; 50XCmax) was 0. The “State 4 respiration driven by succinate at 50XCmax” value ([1]; 50XCmax) was 0, the “State 3 respiration driven by glutamate/malate at 100XCmax” value ([1]; 100XCmax) was 0 and the “State 3 respiration driven by succinate at 100XCmax” value ([1]; 100XCmax) was 0. For the same molecule, the “State 4 respiration driven by glutamate/malate at 100XCmax” value ([1]; 100XCmax) was 0, the “State 4 respiration driven by succinate at 100XCmax” value ([1]; 100XCmax) was 0 and the “RCC II at 1.0XCmax” value ([2]; 1.0XCmax) was 0. The “RCC II at 2.5XCmax” value ([2]; 2.5XCmax) was 0, the “RCC II at 5XCmax” value ([2]; 5XCmax) was 0 and the “RCC II at 10XCmax” value ([2]; 10XCmax) was 0. The “RCC II at 20XCmax” value ([2]; 20XCmax) was 0, the “RCC II at 30XCmax” value ([2]; 30XCmax) was 0 and the “RCC II at 50XCmax” value ([2]; 50XCmax) was 0. The “RCC II at 100XCmax” value ([2]; 100XCmax) was 0, the “RCC III at 100XCmax” value [3] was 0 and the “RCC IV at 50XCmax” value [4] was 0. For the same molecule, the “RCC V at 5XCmax” value ([5]; 5XCmax) was 0, the “RCC V at 50XCmax” value ([5]; 50XCmax) was 0 and the “MMP measured by Rhodamine 123 at 1XCmax” value ([6]; 1XCmax) was 0. For the same molecule, the “MMP measured by Rhodamine 123 at 2.5XCmax” value ([6]; 2.5XCmax) was 0, the “MMP measured by Rhodamine 123 at 5XCmax” value ([6]; 5XCmax) was 0 and the “MMP measured by Rhodamine 123 at 10XCmax” value ([6]; 10XCmax) was 0. For the same molecule, the “MMP measured by Rhodamine 123 at 20XCmax” value ([6]; 20XCmax) was 0, the “MMP measured by Rhodamine 123 at 30XCmax” value ([6]; 30XCmax) was 0 and the “MMP measured by Rhodamine 123 at 50XCmax” value ([6]; 50XCmax) was 0. For the same molecule, the “MMP measured by Rhodamine 123 at 100XCmax” value ([6]; 100XCmax) was 0, the “Cytochrome c release 1XCmax” value ([7]; 1XCmax) was 0 and the “Cytochrome c release 2.5XCmax” value ([7]; 2.5XCmax) was 0. The “Cytochrome c release 5XCmax” value ([7]; 5XCmax) was 0, the “Cytochrome c release 10XCmax” value ([7]; 10XCmax) was 0 and the “Cytochrome c release 20XCmax” value ([7]; 20XCmax) was 0. The “Cytochrome c release 30XCmax” value ([7]; 30XCmax) was 0, the “Cytochrome c release 50XCmax” value ([7]; 50XCmax) was 0 and the “Cytochrome c release 100XCmax” value ([7]; 100XCmax) was 0. For the same molecule, the “DILI potential (based on labeling)” value ([8]; 1 DILI positive, 0 negative according to labeling, ref product labeling) was 1, the “Labeling for DILI” value ([8]; BBW: black box warning, W&P: Warnings and Precautions, ref product labeling) was “W&P: ALT↑” and the “labeling for DILI” value ([8]; W&P warnings and precautions, BBW black box warnings, ref FDA product labeling) was “W&P: ALT↑/monitoring”. For the same molecule, the “DILI potential (based on labeling)” value ([8]; ref FDA product labeling) was 1, the “ROS measured by CM-H2DCFDA at 1XCmax” value ([9]; 1XCmax) was 0 and the “ROS measured by CM-H2DCFDA at 2.5XCmax” value ([9]; 2.5XCmax) was 0. The “ROS measured by CM-H2DCFDA at 5XCmax” value ([9]; 5XCmax) was 0, the “ROS measured by CM-H2DCFDA at 10XCmax” value ([9]; 10XCmax) was 0 and the “ROS measured by CM-H2DCFDA at 20XCmax” value ([9]; 20XCmax) was 0. The “ROS measured by CM-H2DCFDA at 30XCmax” value ([9]; 30XCmax) was 0, the “ROS measured by CM-H2DCFDA at 50XCmax” value ([9]; 50XCmax) was 0 and the “ROS measured by CM-H2DCFDA at 100XCmax” value ([9]; 100XCmax) was 0.

Source: paper PMC5515969, “Effects of 31 FDA approved small-molecule kinase inhibitors on isolated rat liver mitochondria” (Archives of Toxicology, 2016)
